According to publication PMC10828444, “Selective inhibition of overactive warmth-sensitive Ca^2+-permeable TRPV3 channels by antispasmodic agent flopropione for alleviation of skin inflammation” (The Journal of Biological Chemistry, 2023):

Columns and labels:
hTRPV3 channels = target: T1, hTRPV3 channels (Homo sapiens, UniProt Q8NET8); assay: Whole-cell patch-clamp of hTRPV3 currents activated by 2-APB in HEK293 cells; type: cell-based
T1 construct: expressed in transfected cells; host or cells: HEK293
T1 sequence (Q8NET8 1-790): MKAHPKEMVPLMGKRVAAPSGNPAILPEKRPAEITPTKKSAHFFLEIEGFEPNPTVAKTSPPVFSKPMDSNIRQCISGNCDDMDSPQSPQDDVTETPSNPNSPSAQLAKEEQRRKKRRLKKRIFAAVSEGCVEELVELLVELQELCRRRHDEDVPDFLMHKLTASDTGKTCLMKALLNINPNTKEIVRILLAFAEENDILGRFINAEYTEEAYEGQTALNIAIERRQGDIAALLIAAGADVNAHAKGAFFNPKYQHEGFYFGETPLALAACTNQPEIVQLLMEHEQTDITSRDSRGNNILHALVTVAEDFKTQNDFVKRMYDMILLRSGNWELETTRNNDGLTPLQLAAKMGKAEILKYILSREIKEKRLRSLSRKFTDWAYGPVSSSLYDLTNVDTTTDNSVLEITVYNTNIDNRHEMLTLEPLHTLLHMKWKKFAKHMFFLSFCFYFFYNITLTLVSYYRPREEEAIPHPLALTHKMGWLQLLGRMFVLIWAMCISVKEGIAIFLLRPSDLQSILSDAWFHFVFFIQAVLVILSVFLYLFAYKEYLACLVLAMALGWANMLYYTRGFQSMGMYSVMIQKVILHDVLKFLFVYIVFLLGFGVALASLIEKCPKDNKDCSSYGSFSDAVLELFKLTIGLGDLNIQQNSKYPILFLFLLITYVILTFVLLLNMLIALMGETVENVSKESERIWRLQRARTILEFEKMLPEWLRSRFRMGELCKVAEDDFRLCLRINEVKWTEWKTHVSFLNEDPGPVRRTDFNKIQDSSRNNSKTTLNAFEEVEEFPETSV
Procedure: (§1) HEK293 cells were cultured in Dulbecco’s modified Eagle’s medium (DMEM, Gibco) containing 4.5 g/L D-glucose supplemented with 10% fetal bovine serum based at 37 °C with 5% CO2. For whole-cell patch-clamp recordings, cells were grown in glass coverslips for 24 h before transient transfections with 3000 ng cDNAs of hTRPV3 (gene accession number BC104866.1), hTRPV1 (accession number NM_080704.3), mTRPV2 (accession number NM_011706.2), hTRPV4 (accession number NM_021625.5), hTRPA1 (accession number NM_007332.3) and hTRPM8 (accession number NM_024080.5) into HEK293 cells grown in a 35-mm cell culture dish using Lipofectamine 2000 (Invitrogen). Cells were used 18 ∼ 24 h after transfection. All WT or mutant hTRPV3 plasmids were validated by DNA sequencing.
(§2) Whole-cell patch clamp recordings of wild-type and mutants were carried out at room temperature using the HEKA EPC10 amplifier powered by PatchMaster software (HEKA) or MultiClamp 700B amplifier driven by Clampex 11.0.3 software. The borosilicate glass pipettes were pulled and fire-polished to 3∼6 MΩ using a DMZ universal electrode puller (Zeitz-Instruments, GmbH). Pipette solution and bath solution both contained (in mM): 130 NaCl, three HEPES, and 0.2 EDTA (pH = 7.4). Cell membrane potential was held at 0 mV, currents were recorded at a voltage ramp from −100 to +100 mV for 500-ms and analyzed at ±80 mV.

mTRPV2 = target: T2, mTRPV2 (Mus musculus, UniProt Q9WTR1); assay: Whole-cell patch-clamp of TRPV2 currents activated by 2-APB in HEK293 cells; type: cell-based; settings: flopropione 100 μM, 2-APB 2 mM
T2 construct: expressed in transfected cells; host or cells: HEK293
T2 sequence (Q9WTR1 1-756): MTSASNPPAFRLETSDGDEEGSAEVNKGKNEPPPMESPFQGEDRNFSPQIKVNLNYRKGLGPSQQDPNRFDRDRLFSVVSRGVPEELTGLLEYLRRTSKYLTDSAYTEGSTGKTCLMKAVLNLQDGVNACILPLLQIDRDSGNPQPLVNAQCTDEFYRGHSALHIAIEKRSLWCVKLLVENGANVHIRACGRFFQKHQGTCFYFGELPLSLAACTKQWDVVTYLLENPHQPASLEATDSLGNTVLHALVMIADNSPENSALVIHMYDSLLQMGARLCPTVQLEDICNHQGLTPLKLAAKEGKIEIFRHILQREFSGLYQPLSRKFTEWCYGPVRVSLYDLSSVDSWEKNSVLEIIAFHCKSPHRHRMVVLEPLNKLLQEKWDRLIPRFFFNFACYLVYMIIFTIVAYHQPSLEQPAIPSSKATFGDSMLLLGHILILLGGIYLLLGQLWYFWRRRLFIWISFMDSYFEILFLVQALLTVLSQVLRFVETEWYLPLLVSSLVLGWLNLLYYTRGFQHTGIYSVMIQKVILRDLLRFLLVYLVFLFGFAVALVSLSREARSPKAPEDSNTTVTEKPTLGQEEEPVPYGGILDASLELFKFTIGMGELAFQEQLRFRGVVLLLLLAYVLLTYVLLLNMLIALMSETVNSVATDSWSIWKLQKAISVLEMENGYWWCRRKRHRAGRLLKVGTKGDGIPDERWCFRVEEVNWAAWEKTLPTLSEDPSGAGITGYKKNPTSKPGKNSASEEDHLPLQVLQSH
Procedure: as §1, §2

CCC(=O)c1c(O)cc(O)cc1O [flopropione]
inhibition at 100 µM (hTRPV3 channels; HEK293, flopropione 100 μmol/L, agonist 2-APB 50 μmol/L, read-out: inhibition of TRPV3 currents): ~84%
IC50 (hTRPV3 channels; whole-cell, HEK293, 50 μM 2-APB activation, n = 5, mean ± SD, read-out: IC50 of dose-dependent inhibition of TRPV3 currents): 17.8 ± 3.5 µM
inhibition at 100 µM (mTRPV2): ~60%
